“And” between values parts separate entries of the source, which are not always exact repeats. Equal values may be shown once. Where no end group is shown, it is not given here. TAMRA = carboxytetramethyl rhodamine on alpha-amino group of Met1

The values that follow come from patent US20240216519A1, “SMALL HYDROPHOBIC PROTEIN DRUG CONJUGATES AND USES THEREOF” (priority 2021, published 2024).

In data set [1] the target is human GLP-1 receptor (Homo sapiens, UniProt P43220). Kind of data set: cAMP accumulation, human GLP-1 receptor. Type of data set: cell-based. On the set-up: expressed in transfected cells; host or cells: COS-7 (methods). As for the experimental part:
(§1) Transient transfection of COS-7 cells was performed using calcium phosphate precipitation method. Briefly, a total of 10 ug of receptor DNA was diluted in TE-buffer ([…] Tris-HCl and 1 mM EDTA, pH 7.5) to a total of 105 ul, to which 15 ul of 2 M CaCl2) was added. The DNA-calcium co-precipitation was gently and slowly added to 120 ul 2× HEPES-buffered saline (HBS), and the transfection mixture was incubated at room temperature for 45 min. The total transfection mixture was added to the cells and incubated for 5 hours at 37° C. and 10% CO2, with the addition of 75 ul chloroquine to the growth medium. After 5 hours, the transfection medium was removed and replaced with regular growth medium. The cells were used in experiment 40-48 h after termination of the transfection procedure.
(§2) For the cAMP assay, the COS-7 cells were seeded into 96-well plates (35.000 cells/well) and washed with HBS prior to incubation with 100 ul […] isobutylmethylzanthine (IBMX) for 30 min at 37° C. […] After incubation, the medium was removed, and cells were treated according to the protocol ‘three reagent addition’ procedure for the HitHunter cAMP XS+Assay by DiscoverX, USA.

For data set [2], the target named is T1, rat GLP-1 receptor (Rattus norvegicus, UniProt P32301).
T1 construct: expressed in transfected cells; host or cells: COS-7 (methods)
T1 sequence (P32301 22-463): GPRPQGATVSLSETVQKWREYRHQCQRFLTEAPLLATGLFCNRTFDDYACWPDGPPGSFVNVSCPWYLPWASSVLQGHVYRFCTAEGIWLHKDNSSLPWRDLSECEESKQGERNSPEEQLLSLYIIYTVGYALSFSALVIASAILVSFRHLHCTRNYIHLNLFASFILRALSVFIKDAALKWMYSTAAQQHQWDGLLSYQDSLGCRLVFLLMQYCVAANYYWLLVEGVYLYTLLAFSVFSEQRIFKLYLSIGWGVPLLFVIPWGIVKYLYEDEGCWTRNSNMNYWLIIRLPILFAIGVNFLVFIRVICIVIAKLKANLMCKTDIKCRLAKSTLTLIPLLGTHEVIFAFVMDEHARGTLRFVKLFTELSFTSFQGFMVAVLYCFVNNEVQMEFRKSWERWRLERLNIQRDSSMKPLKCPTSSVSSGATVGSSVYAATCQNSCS
Kind of data set: cAMP accumulation, rat GLP-1 receptor. The settings on record: rat GLP-1R-expressing HEK293 cells; read-out: EC50, intracellular cAMP accumulation. It is filed as cell-based. As for the experimental part:
as §1, §2

A short description of data set [3]: Plasma and CSF concentrations after injection into vena cava (RIA GLP-1 assay). It is filed as in vivo. The settings on record: rat. Here is the method: Male Sprague Dawley rats were purchased from Charles Rivers. Animals were anesthetized by hypnorm/dormicum, and restrained in a stereotactic instrument. […] Blood samples were collected prior to the injection of test compounds and straight after CSF aspiration.
The assay buffer was 100 mM Tris buffer with pH 8.5 containing 1% (wt/vol) human serum albumin, 0.01 mM valine-pyrrolidide and 500 KIE aprotinin (final concentrations). […] Plasma and CSF concentrations were measured after dilution in assay buffer. Free and bound moieties were separated with plasma-coated charcoal.

In data set [4] the test system is C57BL/6J mice. In words: Food intake of fasted C57BL/6J mice after i.p. injection (Example 8). Type of data set: in vivo, mouse. Particulars: 200 nmol/kg i.p. As for the experimental part: Female C57BL/6J mice were purchased from Charles Rivers. […] The animals were housed in individual cages, with access to food and water, and food intake was measured 1 and 2 hours after injection.

Data set [5] relates to C57BL/6J mice. In words: Acute food intake in lean mice, s.c. (Example 10). Type of data set: in vivo, mouse. As for the experimental part:
Female C57BL/6J mice were purchased from Charles Rivers. One week before study initiation the mice were single housed with free access to food and water. […] Thirty minutes prior peptide injection, all mice were administered subcutaneously with DDP-4 inhibitor Valine-pyrrolidide (1.5 mg/mouse). Food intake was measured after 1, 2, 4 and 14 hours (FIG. 14A-D).
Results shown are combined data from five studies with an identical study design as described above. Between each study mice had at least one week washout period.

For data set [6], the system named is Diet induced obese C57BL/6NTac male mice. In words: Acute food intake in diet induced obese mice, s.c. (Example 11). Type of data set: in vivo, mouse. The settings on record: 15 nmol/kg s.c. Here is the method:
Diet induced obese C57BL/6NTac male mice were purchased from Taconic and continued on a high fat high sucrose diet with free access to water. One week after arrival, animals were double or single housed. […] Thirty minutes prior peptide injection, all mice were administered subcutaneously with DDP-4 inhibitor Valine-pyrrolidide (3 mg/mouse). Food intake was measured after 1, 2, 4 and 14 hours (FIG. 15A-D).

Data set [7] has as its system CaCo-2 cells. In words: Transport study: diffusion of FITCs through tight monolayer of Caco2 cells. Type of data set: cell-based. The settings on record: basal addition of FITCs together with ligand. As for the experimental part:
CaCo-2 cells were seeded in transwell chambers (basal) and two times TEER was measured until day 17-21 post seeding. TEER experiments were performed afte 17-21 days post seeding in wells with higher TEER as 1000 ohms (proof of a tight cell monolatyer. Caco2 cells were infected basal with mumps virus (MuV Jerryl Lynn strain, WT or SH-protein deletion virus) at a multiplicity of infection of 3. TEER was measured continuously performing CellZcope experiments.
Transport studies were performed until day 17-21 post seeding as described above for the Cellzcope experiments. Ligand or control induced changes in the tightness of the cell monolayer was measured passively by the basal addition of the fluorescence dye (FITCs) together with the ligands or controls. Increase of FITCs apical was detected by collecting samples after different time points.
In general terms: Caco-2 cells form a polarised layer with tight junctions and transporters.

Data set [8] relates to choroid plexus of the WT mouse brain. Kind of data set: TAMRA labelled SH-protein binding to cryo-sections, WT mouse brain. Particulars: 1 h incubation. As for the experimental part: (§3) SH protein (SEQ ID NO: 74) with a N-terminal carboxytetramethyl rhodamine attached through its carboxyl-group to the N-terminal alpha amino-group of the first Methionine was used for making the TAMRA labelled SH-protein (SEQ ID NO: 129). A mixture of 5-(and-6)-Carboxytetramethylrhodamine was used.
(§4) A whole body perfusion was performed of mice and brains were dissected and frozen at −80C. Cryo-sections of mouse brains (WT and GPR125 KO mouse (Spina et al. 2021)) were generated and the TAMRA-labelled SH-protein was incubated on the cryosections at different concentrations or buffer. Afterwards the sections were mounted with mounting media containing a DAPI stain.

Data set [9] relates to choroid plexus of the GPR125 KO mouse brain. In words: TAMRA labelled SH-protein binding to cryo-sections, GPR125 KO mouse brain. Particulars: 1 h incubation. Here is the method:
as §3, §4

[10] abbreviates: CSF 10 min after i.v. injection.

Sequence of human GLP-1 receptor (P43220 24-463): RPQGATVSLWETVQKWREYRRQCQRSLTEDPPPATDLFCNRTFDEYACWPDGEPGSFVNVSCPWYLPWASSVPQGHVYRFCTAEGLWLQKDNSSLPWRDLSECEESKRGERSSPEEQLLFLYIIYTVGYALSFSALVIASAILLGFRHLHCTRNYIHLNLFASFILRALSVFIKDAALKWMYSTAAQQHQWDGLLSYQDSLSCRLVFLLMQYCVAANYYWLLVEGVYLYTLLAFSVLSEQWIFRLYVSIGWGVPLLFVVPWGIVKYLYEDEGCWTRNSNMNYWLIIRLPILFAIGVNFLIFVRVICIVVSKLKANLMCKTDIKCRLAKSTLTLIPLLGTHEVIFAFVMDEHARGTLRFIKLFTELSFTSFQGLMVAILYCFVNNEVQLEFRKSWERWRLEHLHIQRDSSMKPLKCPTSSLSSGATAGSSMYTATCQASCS

As usually defined, the EC50 is the concentration that produces a half-maximal response. With `CC[C@H](C)[C@H](NC(=O)[C@H](C)NC(=O)[C@@H]1CCCN1)C(=O)N[C@@H](CCC(N)=O)C(=O)N1CCC[C@H]1C(=O)N1CCC[C@H]1C(=O)N[C@@H](CC(C)C)C(=O)N[C@@H](Cc1ccc(O)cc1)C(=O)N[C@@H](CC(C)C)C(=O)N[C@H](C(=O)NCCOCCOCC(=O)NCCCC[C@H](NC(=O)[C@H](C)NC(=O)[C@H](C)NC(=O)[C@H](CCC(N)=O)NC(=O)CNC(=O)[C@H](CCC(=O)O)NC(=O)[C@H](CC(C)C)NC(=O)[C@H](Cc1ccc(O)cc1)NC(=O)[C@H](CO)NC(=O)[C@H](CO)NC(=O)[C@@H](NC(=O)[C@H](CC(=O)O)NC(=O)[C@H](CO)NC(=O)[C@@H](NC(=O)[C@H](Cc1ccccc1)NC(=O)[C@@H](NC(=O)CNC(=O)[C@H](CCC(=O)O)NC(=O)[C@H](C)NC(=O)[C@@H](N)Cc1c[nH]cn1)[C@@H](C)O)[C@@H](C)O)C(C)C)C(=O)N[C@@H](CCC(=O)O)C(=O)N[C@@H](Cc1ccccc1)C(=O)N[C@H](C(=O)N[C@@H](C)C(=O)N[C@@H](Cc1c[nH]c2ccccc12)C(=O)N[C@@H](CC(C)C)C(=O)N[C@H](C(=O)N[C@@H](CCCNC(=N)N)C(=O)NCC(=O)N[C@@H](CCCNC(=N)N)C(N)=O)C(C)C)[C@@H](C)CC)[C@@H](C)O` [SH(2-11)-GLP-1(7-36)], the half-maximal effective concentration (EC50) in data set [1] and in [2] was 130 pM each time. Further, the level at time molar at 10 min in [3] (male, Sprague Dawley, cerebrospinal fluid (CSF), iv, CSF 10 minutes after injection into vena cava, SH(2-11)-GLP-1 500, GLP-1 50 (injection), read-out: CSF conc) was found to be 277 µM. Further, in [3] (10 min after i.v. injection), the “detectable in CSF by RIA GLP-1 assay” value is “detectable”. Further, the “amount detectable within the CSF, of the total injected concentration” value in data set [3] (setting [10]) is “approximately 55%”. Also, the “concentrated more in the CSF compared to GLP-1(7-36)” value in [3] (setting [10]) came to 10 times. Further, the “Ratio (CSF conc to injection conc)” value in data set [3] (CSF 10 minutes after injection) is given as 0.554. The “higher presence within the CSF” value in [3] (compared to GLP-1(7-36)) amounted to 10 fold. For the same compound, the “food intake compared to vehicle” value is reported as “decreases the food intake significantly” in [4] (1 hour after injection); “decreases the food intake significantly” in data set [4] (2 hours after injection); “decreased food intake significantly” in [5] (15 nmol/kg s.c., after 1 hour); “decreased food intake significantly” in [5] (15 nmol/kg s.c., after 2 hours); “decreased food intake significantly” in data set [5] (15 nmol/kg s.c., after 4 hours); “decreased their food intake significantly” in data set [5] (30 nmol/kg s.c., after 1 hour). The “food intake compared to vehicle” value was “decreased their food intake significantly” in data set [5] (30 nmol/kg s.c., after 2 hours); “still present” in data set [5] (30 nmol/kg s.c., after 4 hours); “significant lower food intake” in [5] (30 nmol/kg s.c., after 14 hours); “decreased food intake significantly” in [6] (after 1 hour, conjugate also vs GLP-1(7-36)); “decreased food intake significantly” in data set [6] (after 2 hours, conjugate also vs GLP-1(7-36)); “decreased food intake significantly” in data set [6] (after 4 hours, conjugate also vs GLP-1(7-36)). Also, the “food intake compared to vehicle” value in [6] (after 14 hours) is reported as “significantly decreased”. Also, the “integrity of tight monolayer of CaCO-2 cells (uptake of fluorescent dye FITCs)” value in [7] is “decreased integrity”.
“TAMRA labelled SH-protein: SH protein (SEQ ID NO: 74) with N-terminal carboxytetramethyl rhodamine on the alpha amino-group of the first Methionine ({TAMRA}-MPAIQPPLYLTFLLLILLYLIITLYVWIILTVTYKTAVRHAALYQRSFFHWSFDHSL)”: in data set [8], the “concentration at which binding to the choroid plexus is still seen” value is recorded as 2,25 UM. For the same compound, the “concentrations at which binding to the choroid plexus is seen (only at higher concentrations)” value in [9] was 22 µM and 11 µM.
